The results in this text go back to US7446199B2, “Compositions useful as inhibitors of protein kinases” (Vertex Pharmaceuticals Incorporated, priority 2003, dated 2008).

For one experiment, the target named is SYK (Homo sapiens, UniProt P43405). The experiment in a line: SYK enzyme assay, coupled enzyme assay. The experiment is classed as biochemical. As to conditions: 200 μM ATP, 4 μM poly Gly-Tyr peptide, 30° C. On the procedure:
Compounds were screened for their ability to inhibit SYK using a standard coupled enzyme assay (Fox et al., Protein Sci. 1998, 7, 2249). Reactions were carried out in 100 mM HEPES (pH 7.5), 10 mM MgCl2, 25 mM NaCl, 1 mM DTT and 1.5% DMSO. Final substrate concentrations in the assay were 200 μM ATP (Sigma chemical Co.) and 4 μM poly Gly-Tyr peptide (Sigma Chemical Co.). Assays were carried out at 30° C. and 200 nM SYK. Final concentrations of the components of the coupled enzyme system were 2.5 mM phosphoenolpyruvate, 300 μM NADH, 30 μg/ml pyruvate kinase and 10 μg/ml lactate dehydrogenase.
An assay stock buffer solution was prepared containing all of the reagents listed above, with the exception of SYK, DTT, and the test compound of interest of the present invention. 56 μl of the test reaction was placed in a 96 well plate followed by the addition of 1 μl of 2 mM DMSO stock containing the test compound of the present invnetion (final compound concentration 30 μM). The plate was pre-incubated for ˜10 minutes at 30° C. and the reaction initiated by the addition of 10 μl of enzyme (final concentration 25 nM). Rates of reaction were obtained using a BioRad Ultramark plate reader (Hercules, Calif.) over a 5 minute read time at 30° C., and Ki values for the compounds of the present invention were determined according to standard methods.

Another experiment addresses T1, TAK1A-TAB fusion protein (Homo sapiens, UniProt O43318).
T1 construct: using 20 nM TAK1A-TAB fusion protein
T1 sequence (O43318 with tags, fused parts or gaps isoform O43318-2 limits assumed): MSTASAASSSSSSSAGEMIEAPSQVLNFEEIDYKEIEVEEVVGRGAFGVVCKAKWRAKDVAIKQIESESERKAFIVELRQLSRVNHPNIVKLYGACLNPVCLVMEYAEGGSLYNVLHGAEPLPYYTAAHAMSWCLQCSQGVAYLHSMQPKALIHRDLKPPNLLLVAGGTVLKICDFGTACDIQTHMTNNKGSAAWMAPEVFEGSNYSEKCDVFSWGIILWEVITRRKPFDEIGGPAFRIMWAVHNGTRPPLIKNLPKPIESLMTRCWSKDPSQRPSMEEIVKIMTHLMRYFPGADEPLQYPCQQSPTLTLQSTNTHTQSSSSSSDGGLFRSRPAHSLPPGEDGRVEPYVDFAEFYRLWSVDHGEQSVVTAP
The experiment in a line: TAK-1 inhibition assay, radiometric filter binding assay. Type of experiment: biochemical. As to conditions: 50 μM ATP, 12 μM bovine myelin basic protein, 20 nM TAK1A-TAB fusion protein. On the procedure:
Compounds were screened for their ability to inhibit TAK1A kinase activity using a radiometric filter binding assay. Reactions were carried out in a solution containing Buffer A (100 mM HEPES (pH 7.5), 10 mM MgCl2), 25 mM NaCl, 2 mM DTT, and 1.5% DMSO. Final substrate concentrations in the assay were 50 μM ATP (a mixture of unlabeled ATP (Sigma Chemicals, St Louis, Mo.) and ^33P-labeled ATP (PerkinElmer Life Sciences, Boston, Mass.) for a final specific activity of 50 Ci/mol), and 12 μM bovine myelin basic protein (MBP, Vertex Pharmaceuticals, Cambridge, Mass.). Reactions were carried out at ambient temperature (˜20° C.) using 20 nM TAK1A-TAB fusion protein. Under these conditions the extent of reaction is linear with time for a period of 2 hours.
A test compound of the present invention (1 μL in DMSO) was combined with ATP and Buffer A in a final volume of 47 μL in a 96 well plate. Typically, a 6 point titration was conducted by preparing serial dilutions (from 10 mM compound stocks) with DMSO of the test compounds of the present invention in daughter plates, for final concentrations spanning 0.046 μM to 3.73 μM. The reaction was initiated by the addition of 20 μl of an enzyme stock solution consisting of TAK1A-TAB fusion (described by Sugita, T. et al. in Biochem. Biophys. Res. Comm. 2002, 297, 1277-1281), MBP, Buffer A, NaCl, and DTT. The reaction was allowed to proceed for two hours at ambient temperature, then quenched with an equal volume of 10 mM unlabeled ATP in 10% trichloroacetic acid. A 110 μL aliquot of the quenched reaction was transferred to a Multiscreen PH filter plate (Millipore, Billerica, Mass.) and allowed to incubate at ambient temperature overnight (typically 16-20 hours). Following incubation the filter plates were washed with 3×150 μL aliquots of 5% trichloroacetic acid using a modified Biotek Elx405 plate washer. A 70 μL aliquot of Microscint 20 scintillation fluid (PerkinElmer) was added to each well, and the plate was then sealed and read on a TopCount NXT microplate scintillation counter (PerkinElmer). The Ki values were determined from the rate data as a function of inhibitor concentration.

For the compound `CN(C)c1cccc(-c2cnc3[nH]cc(-c4oncc4-c4cccc(F)c4F)c3c2)c1` [Compound 61, (3-{3-[4-(2,3-Difluoro-phenyl)-isoxazol-5-yl]-1H-pyrrolo[2,3-b]pyridin-5-yl}-phenyl)-dimethyl-amine], the Ki on SYK lay within 1 to 12.5 µM; at TAK1A-TAB fusion protein, 0.2 to 1 µM.

As to `Cc1noc(-c2c[nH]c3ncc(-c4ccc(N5CCN(C)CC5)cc4)cc23)c1-c1cccc(F)c1F` [Compound 135, 3-[4-(2,3-Difluoro-phenyl)-3-methyl-isoxazol-5-yl]-5-[4-(4-methyl-piperazin-1-yl)-phenyl]-1H-pyrrolo[2,3-b]pyridine], the Ki is 0.2 to 1 µM on SYK and below 0.2 µM on TAK1A-TAB fusion protein.

Consider `Fc1cccc(-c2cnoc2-c2c[nH]c3ncc(/C=C/n4cncn4)cc23)c1F` [Compound 133, 3-[4-(2,3-Difluoro-phenyl)-isoxazol-5-yl]-5-(2-[1,2,4]triazol-1-yl-vinyl)-1H-pyrrolo[2,3-b]pyridine], for which the Ki is 1 to 12.5 µM at SYK and 0.2 to 1 µM on TAK1A-TAB fusion protein.

What is called Ki is the dissociation constant of the complex between target and ligand, obtained from inhibition or displacement. Read a high Ki as weaker binding.
